Key:
[1] = system: GM-CSFR/JAK2/STAT5 pathway; experiment: csTF-1 cell-based reporter assay; settings: Homo sapiens; csTF-1 cells, GM-CSF at 2 ng/mL, 4 hours; read-out: Cell Assay: CS TF-1 reporter assay IC50
Procedure: csTF-1 Cell-Based Reporter Assay
csTF-1 cells are derived from the human erythroleukemia cell line that is growth dependent on GM-CSF and has an intact GM-CSFR/JAK2/STAT5 pathway. The cell line contains stably integrated beta-lactamase reporter gene under the control of the […] (irf 1) response element recognized by the activated transcription factor STATS. csTF-1 cells (Invitrogen K1219) were washed with assay media (97% OPTIMEM/0.5% dialyzed FBS/0.1 mM NEAA/1 mM Na pyr/P/S) and seeded in the same media at 5×10^5 cell/mL in T150 flask. After 16 hour incubation, cells were seeded at 2×10^5 cell/well in 50 μl volume, into Costar, clear bottom, 96-well assay plates. Serial dilutions of compounds were added to the plates with final DMSO concentration at 0.5% and GM-CSF at 2 ng/mL and the plates were then incubated at […] and 5% CO2 for 4 hours. The plates were brought to room temperature before adding Substrate Mixture according to manufacturer's protocol (Invitrogen, Catalog #K1085). The assay plates containing the substrate mixture were incubated in the dark at room temperature for 2 hours. Blue and green fluorescence was measured with excitation at 409 nm and emission at 460 nm (for blue) and excitation at 409 nm and emission at 530 nm (for green) using Spectra Max Gemini EM.

Tyk2 = molecular target: T1, Tyk2 (Homo sapiens, UniProt P29597); experiment: Competition binding assay to determine Kd against JAK kinases: Tyk2
T1 construct: made in house; host or cells: T7 phage display, or HEK-293 cells (alternative)
Source text: (§1) Competition Binding Assay to Determine Binding Constants (Kd) of the Compounds Against JAK Kinases
(§2) Competition binding assays used herein were developed, validated and performed as described in Fabian et al., Nature Biotechnology 2005, 23, 329-336. Kinases were produced as fusions to T7 phage (See, Fabian et al. or WO04/015142) or alternatively, the kinases were expressed in HEK-293 cells and subsequently tagged with DNA for PCR detection (See, WO08/005,310). For the binding assays, streptavidin-coated magnetic beads were treated with biotinylated affinity ligands for 30 min at rt to generate affinity resins. The liganded beads were blocked with excess biotin and washed with blocking buffer (SeaBlock (Pierce), 1% BSA, 0.05% Tween 20, 1 mM DTT) to remove unbound ligand and to reduce non-specific binding. Binding reactions were assembled by combining kinase, liganded affinity beads, and test compounds in 1× binding buffer (20% SeaBlock, 0.17×PBS, 0.05% Tween 20, 6 mM DTT). Test compounds were prepared as 100× stocks in DMSO and rapidly diluted into the aqueous environment. DMSO was added to control assays lacking a test compound. Primary screen interactions were performed in polypropylene 384-well plates in a final volume of 34 μL, while Kd determinations were performed in polystyrene 96-well plates in a final volume of 135 μL. The assay plates were incubated at room temperature with shaking for 1 hour, long enough for binding reactions to reach equilibrium, and the affinity beads were washed extensively with wash buffer (1×PBS, 0.05% Tween 20) to remove unbound protein. The beads were then resuspended in elution buffer (1×PBS, 0.05% Tween 20, 2 μM non-biotinylated affinity ligand) and incubated at room temperature with shaking for 30 min. The kinase concentration in the eluates was measured by quantitative PCR. Each kinase was tested individually against each compound. Kds were determined using eleven serial threefold dilutions. A selectivity score, which is a quantitative measure of selectivity of a compound against a panel of enzymes, may be calculated for a compound by dividing the number of enzymes for which a compound meets a set criteria, (for example, a binding constant of 100 nM or less), by the total number of enzymes tested.

JAK2 = molecular target: T2, JAK2 (Homo sapiens, UniProt O60674); experiment: Competition binding assay to determine Kd against JAK kinases: JAK2
T2 construct: made in house; host or cells: T7 phage display, or HEK-293 cells (alternative)
Source text: as §1, §2

JAK3 = molecular target: T3, JAK3 (Homo sapiens, UniProt P52333); experiment: Competition binding assay to determine Kd against JAK kinases: JAK3
T3 construct: made in house; host or cells: T7 phage display, or HEK-293 cells (alternative)
T3 sequence (P52333 1-1124): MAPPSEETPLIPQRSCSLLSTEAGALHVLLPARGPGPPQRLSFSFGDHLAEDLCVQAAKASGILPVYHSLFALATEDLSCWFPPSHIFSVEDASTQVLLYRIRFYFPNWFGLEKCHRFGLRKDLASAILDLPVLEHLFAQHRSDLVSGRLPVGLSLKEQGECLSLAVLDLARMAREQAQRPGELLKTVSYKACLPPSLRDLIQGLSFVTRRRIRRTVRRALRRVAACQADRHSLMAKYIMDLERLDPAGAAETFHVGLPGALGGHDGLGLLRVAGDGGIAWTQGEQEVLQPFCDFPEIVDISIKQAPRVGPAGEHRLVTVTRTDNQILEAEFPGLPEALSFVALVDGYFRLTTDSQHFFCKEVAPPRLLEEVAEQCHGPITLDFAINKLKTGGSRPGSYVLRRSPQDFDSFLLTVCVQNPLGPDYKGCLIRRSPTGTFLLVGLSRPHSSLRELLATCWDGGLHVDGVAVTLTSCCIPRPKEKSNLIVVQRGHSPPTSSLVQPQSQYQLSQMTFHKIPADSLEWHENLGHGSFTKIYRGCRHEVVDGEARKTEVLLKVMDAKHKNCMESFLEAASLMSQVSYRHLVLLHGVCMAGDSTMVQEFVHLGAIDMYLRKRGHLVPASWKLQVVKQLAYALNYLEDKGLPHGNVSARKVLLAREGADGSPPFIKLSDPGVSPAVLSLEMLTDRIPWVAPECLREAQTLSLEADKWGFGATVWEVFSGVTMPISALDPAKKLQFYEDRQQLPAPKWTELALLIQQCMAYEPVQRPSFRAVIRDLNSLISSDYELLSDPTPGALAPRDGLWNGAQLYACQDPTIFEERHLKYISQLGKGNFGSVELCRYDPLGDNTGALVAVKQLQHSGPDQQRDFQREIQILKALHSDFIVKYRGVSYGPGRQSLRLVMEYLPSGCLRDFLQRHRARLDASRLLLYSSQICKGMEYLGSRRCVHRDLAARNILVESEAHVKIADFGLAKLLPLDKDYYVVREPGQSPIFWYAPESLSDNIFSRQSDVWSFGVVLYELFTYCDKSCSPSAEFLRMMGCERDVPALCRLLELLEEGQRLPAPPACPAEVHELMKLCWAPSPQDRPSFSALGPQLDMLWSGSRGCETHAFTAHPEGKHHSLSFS
Source text: as §1, §2

T1 sequence (P29597 whole entry): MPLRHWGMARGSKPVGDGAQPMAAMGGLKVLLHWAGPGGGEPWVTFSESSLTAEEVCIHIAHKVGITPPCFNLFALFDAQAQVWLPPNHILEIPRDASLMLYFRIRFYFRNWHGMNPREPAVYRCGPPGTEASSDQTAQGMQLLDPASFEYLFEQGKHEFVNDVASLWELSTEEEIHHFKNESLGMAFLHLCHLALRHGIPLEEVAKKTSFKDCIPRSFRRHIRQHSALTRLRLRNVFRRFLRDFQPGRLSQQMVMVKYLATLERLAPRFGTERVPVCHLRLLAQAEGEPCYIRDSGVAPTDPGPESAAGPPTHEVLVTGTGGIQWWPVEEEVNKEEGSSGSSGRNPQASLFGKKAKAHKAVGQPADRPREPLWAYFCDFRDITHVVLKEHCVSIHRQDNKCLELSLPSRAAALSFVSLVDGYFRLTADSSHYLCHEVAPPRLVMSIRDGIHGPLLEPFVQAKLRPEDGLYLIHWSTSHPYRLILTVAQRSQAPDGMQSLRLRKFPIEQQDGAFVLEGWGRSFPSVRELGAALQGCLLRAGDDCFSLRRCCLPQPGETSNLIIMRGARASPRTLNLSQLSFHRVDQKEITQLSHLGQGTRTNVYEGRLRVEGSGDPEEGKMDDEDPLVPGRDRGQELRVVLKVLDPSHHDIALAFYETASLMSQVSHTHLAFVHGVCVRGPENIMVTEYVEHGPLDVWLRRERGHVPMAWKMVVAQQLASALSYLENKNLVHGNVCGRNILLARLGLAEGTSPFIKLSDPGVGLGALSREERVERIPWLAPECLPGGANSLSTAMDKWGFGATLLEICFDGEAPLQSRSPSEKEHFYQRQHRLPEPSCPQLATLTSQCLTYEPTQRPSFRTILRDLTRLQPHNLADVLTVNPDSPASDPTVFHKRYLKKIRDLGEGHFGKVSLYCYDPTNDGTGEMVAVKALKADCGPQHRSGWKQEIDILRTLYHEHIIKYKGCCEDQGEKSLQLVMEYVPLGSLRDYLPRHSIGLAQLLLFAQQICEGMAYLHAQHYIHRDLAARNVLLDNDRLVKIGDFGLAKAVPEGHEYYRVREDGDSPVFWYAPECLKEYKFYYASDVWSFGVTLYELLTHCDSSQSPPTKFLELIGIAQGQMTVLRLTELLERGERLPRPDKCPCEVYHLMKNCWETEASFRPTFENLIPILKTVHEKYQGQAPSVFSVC
T2 sequence (O60674 whole entry): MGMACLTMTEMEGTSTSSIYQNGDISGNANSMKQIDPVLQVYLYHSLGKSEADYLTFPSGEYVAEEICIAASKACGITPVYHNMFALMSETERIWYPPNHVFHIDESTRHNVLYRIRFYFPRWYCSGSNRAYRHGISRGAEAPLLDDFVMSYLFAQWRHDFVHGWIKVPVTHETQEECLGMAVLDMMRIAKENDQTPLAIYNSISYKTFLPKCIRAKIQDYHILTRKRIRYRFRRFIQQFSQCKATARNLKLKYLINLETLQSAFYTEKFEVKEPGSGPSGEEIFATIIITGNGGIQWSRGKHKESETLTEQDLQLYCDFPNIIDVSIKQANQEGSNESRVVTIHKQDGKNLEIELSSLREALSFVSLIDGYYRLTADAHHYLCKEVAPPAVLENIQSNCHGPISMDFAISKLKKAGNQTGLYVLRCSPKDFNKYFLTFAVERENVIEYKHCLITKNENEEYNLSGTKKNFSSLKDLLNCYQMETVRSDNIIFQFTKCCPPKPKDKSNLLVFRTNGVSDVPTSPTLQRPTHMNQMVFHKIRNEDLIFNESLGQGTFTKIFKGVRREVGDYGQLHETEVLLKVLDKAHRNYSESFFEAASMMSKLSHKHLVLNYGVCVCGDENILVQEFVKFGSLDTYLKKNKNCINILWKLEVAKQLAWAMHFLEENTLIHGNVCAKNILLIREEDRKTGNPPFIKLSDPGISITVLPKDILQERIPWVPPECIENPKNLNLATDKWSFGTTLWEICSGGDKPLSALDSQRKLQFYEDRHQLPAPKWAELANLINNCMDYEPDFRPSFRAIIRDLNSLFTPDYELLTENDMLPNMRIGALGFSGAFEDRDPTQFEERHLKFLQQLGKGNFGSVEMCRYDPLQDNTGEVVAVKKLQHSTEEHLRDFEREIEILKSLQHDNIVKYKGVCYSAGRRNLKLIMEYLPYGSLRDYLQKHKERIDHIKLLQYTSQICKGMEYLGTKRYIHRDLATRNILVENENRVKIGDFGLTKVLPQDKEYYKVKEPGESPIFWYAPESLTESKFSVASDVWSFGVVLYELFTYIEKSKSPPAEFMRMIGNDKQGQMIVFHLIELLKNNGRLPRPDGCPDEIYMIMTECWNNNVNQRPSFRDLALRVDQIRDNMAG

IC50 [1] [nM] | Kd (Tyk2) [nM] | Kd (JAK2) [nM] | Kd (JAK3) [nM] | Compound
100 to 500 | ≤ 10 | 1 to 10 | 10 to 100 | Cc1cc(Nc2nc(C(F)(F)c3ccc(F)cn3)nc3c(S(C)(=O)=O)cccc23)n[nH]1 [Example 37, 2-(difluoro(5-fluoropyridin-2-yl)methyl)-N-(5-methyl-1H-pyrazol-3-yl)-8-(methylsulfonyl)quinazolin-4-amine]
≤ 100 | ≤ 10 | ≤ 1 | ≤ 10 | Cc1ccc2c(Nc3cc(C)[nH]n3)nc(C(F)(F)c3ccc(F)cn3)nc2c1 [Example 14, 2-(difluoro(5-fluoropyridin-2-yl)methyl)-7-methyl-N-(5-methyl-1H-pyrazol-3-yl)quinazolin-4-amine]
100 to 500 | ≤ 10 | ≤ 1 | 10 to 100 | CCc1cccc2c(Nc3cc(C)[nH]n3)nc(C(F)(F)c3ccc(F)cn3)nc12 [Example 36, 2-(difluoro(5-fluoropyridin-2-yl)methyl)-8-ethyl-N-(5-methyl-1H-pyrazol-3-yl)quinazolin-4-amine]
≤ 100 | ≤ 10 | ≤ 1 | ≤ 10 | Cc1cc(Nc2nc(C(F)(F)c3ccc(F)cn3)nc3cc(C4CC4)ccc23)n[nH]1 [Example 9, 7-cyclopropyl-2-(difluoro(5-fluoropyridin-2-yl)methyl)-N-(5-methyl-1H-pyrazol-3-yl)quinazolin-4-amine]
100 to 500 | ≤ 10 | ≤ 1 | 10 to 100 | Cc1cc(Nc2nc(C(F)(F)c3ccc(F)cn3)nc3c(Br)cccc23)n[nH]1 [Example 11, 8-bromo-2-(difluoro(5-fluoropyridin-2-yl)methyl)-N-(5-methyl-1H-pyrazol-3-yl)quinazolin-4-amine]
≤ 100 | ≤ 10 | ≤ 1 | ≤ 10 | Cc1cc(Nc2nc(C(F)(F)c3ccc(F)cn3)nc3c(C(=O)NC4COC4)cccc23)n[nH]1 [Example 45, 2-(difluoro(5-fluoropyridin-2-yl)methyl)-4-((5-methyl-1H-pyrazol-3-yl)amino)-N-(oxetan-3-yl)quinazoline-8-carboxamide]
≤ 100 | ≤ 10 | ≤ 1 | ≤ 10 | Cc1cc(Nc2nc(C(F)(F)c3ccc(F)cn3)nc3cc(Br)ccc23)n[nH]1 [Example 7, 7-bromo-2-(difluoro(5-fluoropyridin-2-yl)methyl)-N-(5-methyl-1H-pyrazol-3-yl)quinazolin-4-amine]
≤ 100 | ≤ 10 | ≤ 1 | 10 to 100 | Cc1cc(Nc2nc(C(F)(F)c3ccc(F)cn3)nc3cc(Cl)ccc23)n[nH]1 [Example 16, 7-chloro-2-(difluoro(5-fluoropyridin-2-yl)methyl)-N-(5-methyl-1H-pyrazol-3-yl)quinazolin-4-amine]
≤ 100 | ≤ 10 | ≤ 1 | ≤ 10 | COc1cccc2c(Nc3cc(C)[nH]n3)nc(C(F)(F)c3ccc(F)cn3)nc12 [Example 43, 2-(difluoro(5-fluoropyridin-2-yl)methyl)-8-methoxy-N-(5-methyl-1H-pyrazol-3-yl)quinazolin-4-amine]
> 500 | 10 to 100 | > 10 | > 100 | Fc1ccc(C(F)(F)c2nc(Nc3nc[nH]n3)c3ccccc3n2)nc1 [Example 31, 2-(difluoro(5-fluoropyridin-2-yl)methyl)-N-(1H-1,2,4-triazol-3-yl)quinazolin-4-amine]
